Values of other authors, collected in patent US7101912B2, “Carbidopa prodrugs and derivatives, and compositions and uses thereof” (XenoPort, Inc., priority 2002, dated 2006).

Experiments:
[1] = rats

absorption following rectal administration [1]	conversion of the prodrug to levodopa in rat plasma (following absorption from an intestinal loop)	levels of levodopa (rat plasma following absorption from an intestinal loop)	SMILES
poor			C[C@@](Cc1ccc(O)c(O)c1)(NN)C(=O)O [carbidopa]
	slow	low	CC(C)(C)C(=O)Oc1ccc(C[C@H](N)C(=O)O)cc1O [NB-355]
